According to patent US7332468B2, “8-tetradecenal as fragrance and flavoring substance” (Symrise GmbH & Co. KG, priority 2001, dated 2008):

Legend:
[1] = Determination of the odor threshold values in water
Description: The odor threshold values in water were determined in the conventional manner for (Z)-8- and (E)-8-tetradecenal and for two comparison substances.

[2] = Odor description by a panel of expert flavoring specialists, ranking scale 0-4; set-up: key to Green-herby / Honey-like (beeswax) / Fresh, fizzy / Citrus-like / Fruity / Flowery / Of orange peel / Of pith / Sweet / Fatty / Waxy: 0: absent; 1: weak; 2: moderate; 3: strong; 4: very strong; details: odor ranking 0-4, expert panel
Description: The substances (Z)-8- and (E)-8-tetradecenal according to the invention were tested by a panel of expert flavoring specialists in the conventional manner. The experts assessed the relevant odors on the basis of the procedure in the article entitled “Organoleptic properties of aliphatic aldehydes”, Boelens, Mans H.; Van Gemert, Leo J.; Perfum. Flavor. (1987), 12(5), 31-7, 40, 43, which has already been cited, i.e. they quantified the odors of the particular substance on the basis of an assessment scale with rankings of 0-4. The rankings have the following meanings: • 0: absent • 1: weak • 2: moderate • 3: strong • 4: very strong

[3] = Modification of a conventional orange flavor composition; details: based on the total mass of the composition
Text: A conventional flavor composition (composition A) was compared with a flavor composition according to the invention (composition B).

[4] = Cadwallader et al. 1999; cited from earlier work
[5] = Boelens, Van Gemert 1987; cited from earlier work

CCCCCC/C=C\CCCCCC=O [7-(Z)-tetradecenal, (Z)-7-tetradecenal]
usable sensory properties compared with (Z)-8-tetradecenal [1]: do not have any usable sensory properties
Odor threshold value ([1]; in water): 2.60 ppb
odor threshold compared with that of (Z)-8-tetradecenal ([1]; in water): approximately two orders of magnitude higher

CCCCC/C=C/CCCCCCC=O [8-(E)-tetradecenal, (E)-8-tetradecenal]
Odor threshold value ([1]; in water): 1.24 ppb
Chemical [2]: 2-3
Citrus-like [2]: 1-2
Fatty [2]: 4
Flowery [2]: 0-1
Fresh, fizzy [2]: 0
Fruity [2]: 0
Green-herby [2]: 1
Honey-like (beeswax) [2]: 0
Of orange peel [2]: 0
Of pith [2]: 1
Sweet [2]: 1-2
Waxy [2]: 4

CCCCC/C=C\CCCCCCC=O [8-(Z)-tetradecenal, (Z)-8-tetradecenal]
Odor threshold value ([1]; in water): 0.009 ppb
odor threshold value lower than that of (Z)-7-tetradecenal and (Z)-9-tetradecenal ([1]; in water): approximately 2 orders of magnitude
proportion sufficient to make a conventional orange flavor fresher, juicier, more typical and more harmonious [3]: 0.001 % (m/m)
Chemical [2]: 0-1
Citrus-like [2]: 4
Fatty [2]: 1
Flowery [2]: 2
Fresh, fizzy [2]: 4
Fruity [2]: 1
Green-herby [2]: 0
Honey-like (beeswax) [2]: 2
Of orange peel [2]: 4
Of pith [2]: 4
Sweet [2]: 3
Waxy [2]: 1-2

CCCC/C=C\CCCCCCCC=O [9-(Z)-tetradecenal, (Z)-9-tetradecenal]
usable sensory properties compared with (Z)-8-tetradecenal [1]: do not have any usable sensory properties
Odor threshold value ([1]; in water): 1.44 ppb
odor threshold compared with that of (Z)-8-tetradecenal ([1]; in water): approximately two orders of magnitude higher

CCCCCCCCCCC/C=C/C=O [(E)-2-tetradecenal]
odor description [4]: fatty, waxy, cheesy
citrus aspect [5]: weak
fatty aspect [5]: strong

CCCCC/C=C/CCC=O [(E)-4-decenal]
odor description [4]: citrus peel

CCCCCCC/C=C/C=O [trans-2-decenal]
citrus aspect [5]: noteworthy

CCCCC/C=C/C=O [trans-2-octenal]
citrus aspect [5]: noteworthy

CCCCCCCC/C=C/C=O [trans-2-undecenal]
citrus aspect [5]: noteworthy
